Assay results as given in US4731109A, “Herbicidal 2-haloacetanilides” (Monsanto Company, priority 1982, dated 1988).
Read-outs that look alike come from different tables or passages of the source.

Key:
Format in all cases: in vivo
Quackgrass = assay: Greenhouse pre-emergence GR15/GR85 selectivity test
Source text: (§1) A good grade of top soil is placed in aluminum pans and compacted to a depth of three-eighths to one-half inch from the top of the pan. On the top of the soil is placed a number of seeds or vegetative propagules of various plant species. The soil required to level fill the pans after seeding or adding vegetative propagules is weighed into a pan. The soil and a known amount of the active ingredient applied in a solvent or as a wettable powder suspension are thoroughly mixed, and used to cover the prepared pans. […] As an alternative procedure, the overhead irrigation may be omitted. Observations are made about 2-3 weeks after seeding and treatment.
(§2) A further guide to the effectiveness of a chemical as a selective herbicide is the "selectivity factor" ("SF") for a herbicide in given crops and weeds. The selectivity factor is a measure of the relative degree of crop safety and weed injury and is expressed in terms of the GR15 /GR85 ratio, i.e., the GR15 rate for the crop divided by the GR85 rate for the weed, both rates in kg/ha (lb/A). In the tables below, selectivity factors are shown in parenthesis following the GR85 rate for each weed; the symbol "NS" indicates "non-selective". Marginal or undetermined selectivity is indicated by a dash (--).
(§3) These weeds are commonly associated with such major crops as corn and soybeans. […] The test procedure was the same as described for Tables II and III but modified by the application of an initial overhead irrigation equivalent to 1/4" (0.64 cm) rainfall; subsequent watering was accomplished by subirrigation. "NS" means non-selective within the test limits.
(§4) Unless otherwise noted; greenhouse tests in Table VI and in other tables below involved herbicide treatments by soil incorporation and an initial overhead irrigation followed by subirrigation as described above.

Yellow Nutsedge = assay: as above
Source text: as §1, §2, §3, §4

Barnyardgrass = assay: Resistance to leaching and resulting herbicidal efficacy; conditions: for inhibition at 140 g/ha / inhibition at 560 g/ha / inhibition at 2200 g/ha: Echinochloa crus-galli, read-out: Percent Inhibition
Procedure: Laboratory tests were conducted to determine the resistance of herbicides according to this invention to leaching into the soil and resulting herbicidal efficacy. […] The pots containing the treated soil were subjected to leaching by placing on a turntable which rotated under two nozzle tips of a water container calibrated to deliver one inch (2.5 cm) of water per hour simulating rainfall. Leaching rates were adjusted by varying the amount of time on the turntable. Water was delivered to the soil in the pots and allowed to percolate through the filter paper and drainage holes. The pots were then allowed to sit for three days at ambient room temperature. The treated soil in the pots was then removed, crumbled and placed as a surface layer on top of other pots containing the above soils seeded with barnyardgrass seeds. The pots were then placed on greenhouse benches, sub-irrigated and allowed to grow for 2-3 weeks. Visual ratings of percent growth inhibition compared to control (untreated) pots and fresh weights for barnyardgrass were recorded; the data from the control represents six replications and that for the test compounds three replications; test data are shown in Table XVIII.

[1] = quackgrass in corn, Table IV, Replicate #1
[2] = quackgrass in corn, Table IV, Replicate #2
[3] = quackgrass in snapbeans, Table VI
[4] = quackgrass in soybeans, Table IV, Replicate #1
[5] = quackgrass in soybeans, Table IV, Replicate #2
[6] = yellow nutsedge in corn, Table IV, Replicate #1
[7] = yellow nutsedge in corn, Table IV, Replicate #2
[8] = yellow nutsedge in soybeans, Table IV, Replicate #1
[9] = yellow nutsedge in soybeans, Table IV, Replicate #2
[10] = Ray silt loam, 0.14 Kg/Ha, rain 0 cm
[11] = Ray silt loam, 0.14 Kg/Ha, rain 1.27 cm
[12] = Ray silt loam, 0.14 Kg/Ha, rain 5.08 cm
[13] = Ray silt loam, 0.56 Kg/Ha, rain 0 cm
[14] = Ray silt loam, 0.56 Kg/Ha, rain 1.27 cm
[15] = Ray silt loam, 0.56 Kg/Ha, rain 5.08 cm
[16] = Ray silt loam, 0.56 Kg/Ha, rain 10.16 cm
[17] = Ray silt loam, 2.2 Kg/Ha, rain 0 cm
[18] = Ray silt loam, 2.2 Kg/Ha, rain 1.27 cm
[19] = Ray silt loam, 2.2 Kg/Ha, rain 5.08 cm
[20] = Ray silt loam, 2.2 Kg/Ha, rain 10.16 cm
[21] = Ray silt loam, 0.14 Kg/Ha, rain 10.16 cm

Structure (SMILES): CCOCN(C(=O)CCl)c1c(C)cccc1C(F)(F)F [Example 1, N-(ethoxymethyl)-2'-trifluoromethyl-6'-methyl-2-chloroacetanilide]
- GR85 (Quackgrass; Table IV, Replicate #1): 0.18 Kg/Ha
- GR85 (Quackgrass; Table IV, Replicate #2): 0.16 Kg/Ha
- GR85 (Quackgrass; Table V): 0.08 Kg/Ha
- selectivity factors relative to prior art compounds (Quackgrass; Table V, quackgrass and yellow nutsedge in corn and soybeans): exceedingly higher selectivity factors
- GR85 Rate (Quackgrass; Table VI): 0.12 Kg/Ha
- GR85 (Quackgrass; Table XIII): 0.07 Kg/Ha
- selectivity against quackgrass in wheat (Quackgrass; in wheat): non-selective
- selectivity factor (GR15/GR85) (Quackgrass; [1]): 4
- selectivity factor (GR15/GR85) (Quackgrass; [2]): 5
- selectivity factor (GR15/GR85) (Quackgrass; quackgrass in corn, Table V): 27.5
- selectivity factor (GR15/GR85) (Quackgrass; quackgrass in corn, Table XIII): 10
- selectivity factor (GR15/GR85) (Quackgrass; quackgrass in rape, Table VI): 7
- selectivity factor (GR15/GR85) (Quackgrass; [3]): 7
- selectivity factor (GR15/GR85) (Quackgrass; [4]): 17
- selectivity factor (GR15/GR85) (Quackgrass; [5]): 14
- selectivity factor (GR15/GR85) (Quackgrass; quackgrass in soybeans, Table V): 35
- selectivity factor (GR15/GR85) (Quackgrass; quackgrass in soybeans, Table XIII): 11.6
- GR85 (Yellow Nutsedge; Table IV, Replicate #1): 0.20 Kg/Ha
- GR85 (Yellow Nutsedge; Table IV, Replicate #2): 0.12 Kg/Ha
- GR85 (Yellow Nutsedge; Table V): 0.10 Kg/Ha
- GR85 (Yellow Nutsedge; Table XII): 0.24 Kg/Ha
- selectivity with respect to yellow nutsedge in rice (Yellow Nutsedge; in rice): non-selective
- selectivity factor (GR15/GR85) (Yellow Nutsedge; [6]): 4
- selectivity factor (GR15/GR85) (Yellow Nutsedge; [7]): 6
- selectivity factor (GR15/GR85) (Yellow Nutsedge; yellow nutsedge in corn, Table V): 22
- selectivity factor (GR15/GR85) (Yellow Nutsedge; yellow nutsedge in corn, Table XII): 2.9
- selectivity factor (GR15/GR85) (Yellow Nutsedge; yellow nutsedge in cotton, Table XII): 8
- selectivity factor (GR15/GR85) (Yellow Nutsedge; [8]): 15
- selectivity factor (GR15/GR85) (Yellow Nutsedge; [9]): 18
- selectivity factor (GR15/GR85) (Yellow Nutsedge; yellow nutsedge in soybeans, Table V): 28
- selectivity factor (GR15/GR85) (Yellow Nutsedge; yellow nutsedge in soybeans, Table XII): 3.6
- inhibition at 140 g/ha (Barnyardgrass; Drummer silt clay, 0.14 Kg/Ha, rain 0 cm): 100%
- inhibition at 140 g/ha (Barnyardgrass; Drummer silt clay, 0.14 Kg/Ha, rain 1.27 cm): 97%
- inhibition at 140 g/ha (Barnyardgrass; Drummer silt clay, 0.14 Kg/Ha, rain 5.08 cm): 95%
- inhibition at 140 g/ha (Barnyardgrass; Drummer silt clay, 0.14 Kg/Ha, rain 10.16 cm): 20%
- inhibition at 560 g/ha (Barnyardgrass; Drummer silt clay, 0.56 Kg/Ha, rain 0 cm): 100%
- inhibition at 560 g/ha (Barnyardgrass; Drummer silt clay, 0.56 Kg/Ha, rain 1.27 cm): 100%
- inhibition at 560 g/ha (Barnyardgrass; Drummer silt clay, 0.56 Kg/Ha, rain 5.08 cm): 100%
- inhibition at 560 g/ha (Barnyardgrass; Drummer silt clay, 0.56 Kg/Ha, rain 10.16 cm): 100%
- inhibition at 2200 g/ha (Barnyardgrass; Drummer silt clay, 2.2 Kg/Ha, rain 0 cm): 100%
- inhibition at 2200 g/ha (Barnyardgrass; Drummer silt clay, 2.2 Kg/Ha, rain 1.27 cm): 100%
- inhibition at 2200 g/ha (Barnyardgrass; Drummer silt clay, 2.2 Kg/Ha, rain 5.08 cm): 100%
- inhibition at 2200 g/ha (Barnyardgrass; Drummer silt clay, 2.2 Kg/Ha, rain 10.16 cm): 100%
- inhibition at 140 g/ha (Barnyardgrass; [10]): 95%
- inhibition at 140 g/ha (Barnyardgrass; [11]): 96%
- inhibition at 140 g/ha (Barnyardgrass; [12]): 58%
- inhibition at 560 g/ha (Barnyardgrass; [13]): 100%
- inhibition at 560 g/ha (Barnyardgrass; [14]): 100%
- inhibition at 560 g/ha (Barnyardgrass; [15]): 70%
- inhibition at 560 g/ha (Barnyardgrass; [16]): 33%
- inhibition at 2200 g/ha (Barnyardgrass; [17]): 100%
- inhibition at 2200 g/ha (Barnyardgrass; [18]): 100%
- inhibition at 2200 g/ha (Barnyardgrass; [19]): 95%
- inhibition at 2200 g/ha (Barnyardgrass; [20]): 35%
- inhibition at 140 g/ha (Barnyardgrass; [21]): 20%
- Fresh Weight (Barnyardgrass; [10]): 0.20 Grams
- Fresh Weight (Barnyardgrass; [11]): 0.17 Grams
- Fresh Weight (Barnyardgrass; [12]): 1.74 Grams
- Fresh Weight (Barnyardgrass; [21]): 3.26 Grams
- Fresh Weight (Barnyardgrass; [13]): 0 Grams
- Fresh Weight (Barnyardgrass; [14]): 0 Grams
- Fresh Weight (Barnyardgrass; [15]): 1.21 Grams
- Fresh Weight (Barnyardgrass; [16]): 2.73 Grams
- Fresh Weight (Barnyardgrass; [17]): 0 Grams
- Fresh Weight (Barnyardgrass; [18]): 0 Grams
- Fresh Weight (Barnyardgrass; [19]): 0.20 Grams
- Fresh Weight (Barnyardgrass; [20]): 2.65 Grams

Structure (SMILES): CC(C)OCN(C(=O)CCl)c1ccccc1C(F)(F)F [Example 2, N--(isopropoxymethyl)-2'-trifluoromethyl-2-chloroacetanilide]
- GR85 (Quackgrass; Table IV, Replicate #1): 0.26 Kg/Ha
- GR85 (Quackgrass; Table IV, Replicate #2): 0.22 Kg/Ha
- GR85 Rate (Quackgrass; Table VI): 0.28 Kg/Ha
- selectivity factor (GR15/GR85) (Quackgrass; [1]): 12
- selectivity factor (GR15/GR85) (Quackgrass; [2]): 3.5
- selectivity factor (GR15/GR85) (Quackgrass; quackgrass in rape, Table VI): 7
- selectivity factor (GR15/GR85) (Quackgrass; [3]): 8
- selectivity factor (GR15/GR85) (Quackgrass; [4]): 6.5
- selectivity factor (GR15/GR85) (Quackgrass; [5]): 7.5
- GR85 (Yellow Nutsedge; Table IV, Replicate #1): 0.17 Kg/Ha
- GR85 (Yellow Nutsedge; Table IV, Replicate #2): 0.20 Kg/Ha
- selectivity factor (GR15/GR85) (Yellow Nutsedge; [6]): 18
- selectivity factor (GR15/GR85) (Yellow Nutsedge; [7]): 4
- selectivity factor (GR15/GR85) (Yellow Nutsedge; [8]): 10
- selectivity factor (GR15/GR85) (Yellow Nutsedge; [9]): 8.5
